Assay results as given in US20100048606A1, “10-Substituted Cytisine Derivatives and Methods of Use Thereof” (Georgetown University Office of Technology Commercialization, priority 2006, published 2010).

Columns and labels:
α3β2 nAChR = molecular target: T1, α3β2 nAChR (Rattus norvegicus, UniProt P04757+P12390); test: Competition binding with [3H]epibatidine, membrane homogenates of stably transfected cells; conditions: for Ki: mean of three to five independent measurements, [3H]epibatidine, read-out: Ki α3β2; for potency estimated from few doses: primary screening, estimated from single concentration (10 μM) competition binding, read-out: Estimated Ki α3β2
T1 construct: expressed in transfected cells

α2β2 nAChR = molecular target: T2, α2β2 nAChR (Rattus norvegicus, UniProt P12389+P12390); test: as above; conditions: for Ki: mean of three to five independent measurements, [3H]epibatidine, read-out: Ki α2β2
T2 construct: expressed in transfected cells

α3β4 nAChR = molecular target: T3, α3β4 nAChR (Rattus norvegicus, UniProt P04757+P12392); test: as above; conditions: for Ki: mean of three to five independent measurements, [3H]epibatidine, read-out: Ki α3β4; for potency estimated from few doses: primary screening, estimated from single concentration (10 μM) competition binding, read-out: Estimated Ki α3β4
T3 construct: expressed in transfected cells

α4β4 nAChR = molecular target: T4, α4β4 nAChR (Rattus norvegicus, UniProt P09483+P12392); test: as above; conditions: for Ki: mean of three to five independent measurements, [3H]epibatidine, read-out: Ki α4β4; for potency estimated from few doses: primary screening, estimated from single concentration (10 μM) competition binding, read-out: Estimated Ki α4β4
T4 construct: expressed in transfected cells

α4β2 nAChR = molecular target: T5, α4β2 nAChR (Rattus norvegicus, UniProt P09483+P12390); test: as above; conditions: for Affinity ratio (α3β4/α4β2): Ki α3β4 divided by Ki α4β2; for Ki: mean of three to five independent measurements, [3H]epibatidine, read-out: Ki α4β2; for potency estimated from few doses: primary screening, estimated from single concentration (10 μM) competition binding, read-out: Estimated Ki α4β2
T5 construct: expressed in transfected cells

α2β4 nAChR = molecular target: T6, α2β4 nAChR (Rattus norvegicus, UniProt P12389+P12392); test: as above; conditions: for Ki: mean of three to five independent measurements, [3H]epibatidine, read-out: Ki α2β4; for potency estimated from few doses: primary screening, estimated from single concentration (10 μM) competition binding, read-out: Estimated Ki α2β4
T6 construct: expressed in transfected cells

[1] = molecular target: nAChRs of rat forebrain tissue (Rattus norvegicus, UniProt P09483+P12390); format: binding; conditions: mean of three to five independent measurements
[2] = molecular target: rat α3β4 nAChRs (KXα3β4R2 cells) (Rattus norvegicus, UniProt P04757+P12392); test: cell-based; conditions: read-out: Relative Emax (% of nicotine Emax) α3β4 nAChR's
α4β2 nAChR's = molecular target: T7, α4β2 nAChR's (Homo sapiens, UniProt P17787+P43681); test: 86Rb+ efflux assay, agonist activity; format: cell-based; conditions: read-out: Relative Emax (% of nicotine Emax) α4β2 nAChR's; 86Rb+ efflux; mean ± standard error of three experiments
T7 construct: expressed in transfected cells

α6β42 = test: Primary screening, single concentration competition binding assay; conditions: estimated from single concentration (10 μM) competition binding, read-out: Estimated Ki α6β42
[3] = background statement; cited from earlier work

Cc1ccc(-c2ccc3n(c2=O)CC2CNCC3C2)s1 (single isomer, unassigned; (-)) [(−)-21c, 9-(5-Methyl-2-thienyl)-1,2,3,4,5,6-hexahydro-1,5-methano-pyrido[1,2-a][1,5]diazocin-8-one]
Ki (α3β2 nAChR): 6 µM | Ki (α2β2 nAChR): 0.5 µM | Ki (α3β4 nAChR): 23 µM | Ki (α4β4 nAChR): 0.59 µM | Affinity ratio (α3β4/α4β2) (α4β2 nAChR): 59 | Ki (α4β2 nAChR): 0.39 µM | Ki (α2β4 nAChR): 1.7 µM | Ki [1]: 1.2 µM

CN1CCCC1c1cccnc1 (single isomer, unassigned; (-)) [(−)-Nicotine, reference compound]
Emax [2]: 100% | Emax (α4β2 nAChR's): 100%

CCCCc1ccc(-c2ccc3n(c2=O)CC2CNCC3C2)cc1 (single isomer, unassigned; (-)) [(−)-21b, 9-(4-Butylphenyl)-1,2,3,4,5,6-hexahydro-1,5-methano-pyrido[1,2-a][1,5]diazocin-8-one]
Ki (α3β2 nAChR): 36 µM | Ki (α2β2 nAChR): 8 µM | Ki (α3β4 nAChR): 140 µM | Ki (α4β4 nAChR): 13 µM | Affinity ratio (α3β4/α4β2) (α4β2 nAChR): 17 | Ki (α4β2 nAChR): 8.2 µM | Ki (α2β4 nAChR): 28 µM | Ki [1]: 21 µM

O=c1ccccn1CC1CCNCC1 [Compound 7a, 1-(Piperidin-4-ylmethyl)pyridin-2(1H)-one]
potency estimated from few doses (α3β2 nAChR): 12 µM | potency estimated from few doses (α3β4 nAChR): 750 µM | potency estimated from few doses (α6β42): 87 µM | potency estimated from few doses (α4β4 nAChR): 5.4 µM | potency estimated from few doses (α4β2 nAChR): 1.6 µM | potency estimated from few doses (α2β4 nAChR): 80 µM

CCC(=O)[C@H]1C2CNCC(C2)c2cccc(=O)n21 (single isomer, unassigned; (-)) [(−)-23, 6-Propionyl-1,2,3,4,5,6-hexahydro-1,5-methano-pyrido[1,2-a][1,5]diazocin-8-one]
Ki (α3β2 nAChR): 300 µM | Ki (α2β2 nAChR): 14 µM | Ki (α3β4 nAChR): 280 µM | Ki (α4β4 nAChR): 20 µM | Affinity ratio (α3β4/α4β2) (α4β2 nAChR): 18 | Ki (α4β2 nAChR): 16 µM | Ki (α2β4 nAChR): 50 µM | Ki [1]: 23 µM

Clc1ccc(C2CC3CCC2N3)cn1 (racemic) [(±)-Epibatidine]
Analgesic potency [3]: approximately 500 times that of morphine

O=c1ccccn1CC1CCCN(Cc2ccccc2)C1 (stereo not drawn) [Compound 6c, 1-[(1-Benzylpiperidin-3-yl)methyl]pyridin-2(1H)-one]
potency estimated from few doses (α3β2 nAChR): 4.3 µM | potency estimated from few doses (α2β2 nAChR; primary screening, estimated from single concentration (10 μM) competition binding, read-out: Estimated Ki α2β2): 100 µM | potency estimated from few doses (α3β4 nAChR): 83 µM | potency estimated from few doses (α6β42): 54 µM | potency estimated from few doses (α4β4 nAChR): 1.4 µM | potency estimated from few doses (α4β2 nAChR): 0.54 µM | potency estimated from few doses (α2β4 nAChR): 91 µM

O=c1c(-c2ccc(F)cc2)ccc2n1CC1CNCC2C1 (single isomer, unassigned; (-)) [(−)-21a, 9-(4-Fluorophenyl)-1,2,3,4,5,6-hexahydro-1,5-methano-pyrido[1,2-a][1,5]diazocin-8-one]
Ki (α3β2 nAChR): 12 µM | Ki (α2β2 nAChR): 0.82 µM | Ki (α3β4 nAChR): 66 µM | Ki (α4β4 nAChR): 3.3 µM | Affinity ratio (α3β4/α4β2) (α4β2 nAChR): 157 | Ki (α4β2 nAChR): 0.42 µM | Ki (α2β4 nAChR): 8.1 µM | Ki [1]: 3.1 µM
